Laboratory results: ChEMBL document CHEMBL6121014, “Novel α-mangostin derivatives as promising antiviral agents: Isolation, synthesis, and evaluation against chikungunya virus” (Eur J Med Chem, 2025)
Activity calls are given as the source filed them. The rule behind the calls is not given here.

Tests used:
Vero = test: (§1) Cytotoxicity against green monkey Vero cells assessed as reduction in cell viability at 24 to 48 hrs by MTT assay; assay type: toxicity, cell-based; set-up: Activity: concentration or dose not given beside the values; conditions: chlorocebus sabaeus, vero; time 24-48 hrs
[1] = Selectivity ratio of IC50 for antiviral activity against CHIKV infected in green monkey Vero cells assessed as reduction in viral titer pretreated the cells with viral infection for 1 hr followed by compound addition and measured after 24 hrs by Foci forming unit assay to CC50 for cytotoxicity against green monkey Vero cells; assay type: toxicity, cell-based
Chikungunya virus [2] = test: Antiviral activity against CHIKV infected in green monkey Vero cells assessed as reduction in viral titer at 3.125 uM pretreated the cells with viral infection for 1 hr followed by compound addition and measured after 24 hrs by Foci forming unit assay (reference value: 8.55 log10FFU/ml); assay type: functional
Chikungunya virus [3] = test: Antiviral activity against CHIKV infected in green monkey Vero cells assessed as reduction in viral titer pretreated with compound for 24 hrs followed by viral infection by Foci forming unit assay; assay type: functional, organism-based
[4] = as §1; assay type: toxicity, cell-based; set-up: Activity: concentration or dose not given beside the values; conditions: chlorocebus sabaeus, Vero cells; time 24-48 hrs
Chikungunya virus [5] = test: Antiviral activity against CHIKV infected in green monkey Vero cells assessed as reduction in viral titer pretreated the cells with viral infection for 1 hr followed by compound addition and measured after 24 hrs by Foci forming unit assay; assay type: functional, organism-based
Chikungunya virus [6] = test: Antiviral activity against CHIKV infected in green monkey Vero cells assessed as inhibition of infectious virus preincubated the cells for 45 mins followed by compound addition and measured after 1 to 6 hrs post infection by time of addition assay; assay type: functional, organism-based; conditions: time 1-6 hrs
Chikungunya virus [7] = test: Antiviral activity against CHIKV infected in green monkey Vero cells assessed as inhibition of viral entry by entry assay; assay type: functional, organism-based
Chikungunya virus [8] = test: Antiviral activity against CHIKV infected in green monkey Vero cells assessed as inhibition of viral post entry by entry bypass assay; assay type: functional, organism-based
Chikungunya virus [9] = test: Antiviral activity against CHIKV infected in green monkey Vero cells assessed as reduction in viral titer at 12.5 to 50 uM pretreated the cells with viral infection for 1 hr followed by compound addition and measured after 24 hrs by Foci forming unit assay (reference value: 8.55 log10FFU/ml); assay type: functional; conditions: dose 12.5-50 µM
Chikungunya virus [10] = test: Antiviral activity against CHIKV infected in green monkey Vero cells assessed as reduction in viral titer at 6.25 uM pretreated with compound for 24 hrs followed by viral infection by Foci forming unit assay (reference value: 8.81 log10FFU/ml); assay type: functional, organism-based
Chikungunya virus [11] = test: Antiviral activity against CHIKV infected in green monkey Vero cells assessed as reduction in viral titer at 50 uM pretreated with compound for 24 hrs followed by viral infection by Foci forming unit assay (reference value: 8.81 log10FFU/ml); assay type: functional
Chikungunya virus [12] = test: Antiviral activity against CHIKV infected in green monkey Vero cells assessed as reduction in viral titer at 25 uM pretreated the cells with viral infection for 1 hr followed by compound addition and measured after 24 hrs by Foci forming unit assay (reference value: 8.55 log10FFU/ml); assay type: functional
Chikungunya virus [13] = test: Antiviral activity against CHIKV infected in green monkey Vero cells assessed as reduction in viral titer at 25 uM pretreated with compound for 24 hrs followed by viral infection by foci forming unit assay (reference value: 8.48 log10FFU/ml); assay type: functional
Chikungunya virus [14] = test: Antiviral activity against CHIKV infected in green monkey Vero cells assessed as reduction in viral titer at 50 uM pretreated with compound for 24 hrs followed by viral infection by foci forming unit assay (reference value: 8.48 log10FFU/ml); assay type: functional
Chikungunya virus [15] = test: Antiviral activity against CHIKV infected in green monkey Vero cells assessed as reduction in viral titer at 6.25 uM pretreated with compound for 24 hrs followed by viral infection by Foci forming unit assay (reference value: 8.55 log10FFU/ml); assay type: functional
Chikungunya virus [16] = test: Antiviral activity against CHIKV infected in green monkey Vero cells assessed as reduction in viral titer at 1.56 uM pretreated the cells with viral infection for 1 hr followed by compound addition and measured after 24 hrs by Foci forming unit assay (reference value: 8.55 log10FFU/ml); assay type: functional
Chikungunya virus [17] = test: Antiviral activity against CHIKV infected in green monkey Vero cells assessed as reduction in viral titer at 12.5 to 25 uM pretreated the cells with viral infection for 1 hr followed by compound addition and measured after 24 hrs by Foci forming unit assay (reference value: 8.55 log10FFU/ml); assay type: functional; conditions: dose 12.5-25 µM
Chikungunya virus [18] = test: Antiviral activity against CHIKV infected in green monkey Vero cells assessed as inhibition of infectious virus preincubated the cells for 45 mins followed by compound addition and measured after 5 to 6 hrs post infection by time of addition assay; assay type: functional; set-up: scale not given: the % may be the effect or the level left; conditions: time 5-6 hrs

SMILES	Activity (Vero) [%]	selectivity ratio at 24 h [1]	CC50 [4] [µM]	IC50 (Chikungunya virus [5]) [µM]	also measured
COc1c(OCC#Cc2cccc(C(F)(F)F)c2)cc2oc3cc4c(c(O)c3c(=O)c2c1CC=C(C)C)C=CC(C)(C)O4	> 90	–	–	–	–
COc1c(OCc2cn(-c3ccc(C)cc3C)nn2)cc2oc3cc4c(c(O)c3c(=O)c2c1CC=C(C)C)C=CC(C)(C)O4	> 90	–	–	–	–
C=C(C)C1Cc2c(cc3oc4cc(O)c(OC)c(CC=C(C)C)c4c(=O)c3c2O)O1 (centres undefined) [MANGOSTENONE F]	> 90	6.54	12.8	1.96	Activity (Chikungunya virus [2]): 7.42 log10FFU/ml; IC50 (Chikungunya virus [3]): 21.8 µM
COc1c(OCc2cn(-c3ccc(Br)cc3)nn2)cc2oc3cc4c(c(O)c3c(=O)c2c1CC=C(C)C)C=CC(C)(C)O4	< 90	–	–	–	–
COc1c(OCc2cn(-c3cccc(C)c3)nn2)cc2oc3cc4c(c(O)c3c(=O)c2c1CC=C(C)C)C=CC(C)(C)O4	> 90	–	–	–	–
COc1c(OCC#Cc2ccc(O)cc2)cc2oc3cc4c(c(O)c3c(=O)c2c1CC=C(C)C)C=CC(C)(C)O4	> 90	–	–	–	Activity (Chikungunya virus [6]): Active
O=c1c2cc(O)c(O)cc2oc2cc(O)cc(O)c12	> 90	–	–	–	–
COc1c(OCC(=O)N2CCN(S(=O)(=O)c3ccc(C)cc3)CC2)cc2oc3cc4c(c(O)c3c(=O)c2c1CC=C(C)C)C=CC(C)(C)O4	> 90	–	–	–	–
COc1c(OCC#Cc2ccc(C(C)=O)cc2)cc2oc3cc4c(c(O)c3c(=O)c2c1CC=C(C)C)C=CC(C)(C)O4	> 90	637	194	0.304	Activity (Chikungunya virus [7]): Active; Activity (Chikungunya virus [8]): Active; Highest Inhibitory Effect Observed
Oc1cc(O)c2c(c1)O[C@@H](c1ccc(O)c(O)c1)[C@@H](O)C2 [(+)-EPICATECHIN]	> 90	23.8	206	8.65	Activity (Chikungunya virus [9]): ~7.4 log10FFU/ml; Activity (Chikungunya virus [10]): Active; Activity (Chikungunya virus [11]): 7.45 log10FFU/ml
COc1c(OCC(=O)N2CCN(S(=O)(=O)c3ccc(Cl)cc3)CC2)cc2oc3cc4c(c(O)c3c(=O)c2c1CC=C(C)C)C=CC(C)(C)O4	> 90	14.3	160	11.2	Activity (Chikungunya virus [12]): 7.39 log10FFU/ml
COc1c(OCc2cn(-c3ccc(C)c(C)c3)nn2)cc2oc3cc4c(c(O)c3c(=O)c2c1CC=C(C)C)C=CC(C)(C)O4	> 90	–	–	–	–
COc1c(OCC(=O)N2CCN(S(=O)(=O)c3ccc(F)cc3)CC2)cc2oc3cc4c(c(O)c3c(=O)c2c1CC=C(C)C)C=CC(C)(C)O4	> 90	7.3	191	26.2	Activity (Chikungunya virus [13]): 7.21 log10FFU/ml; Activity (Chikungunya virus [14]): 7.13 log10FFU/ml; Activity (Chikungunya virus [9]): 7.37 log10FFU/ml; IC50 (Chikungunya virus [3]): 7.71 µM
COc1c(O)cc2oc3cc(O)c(CC=C(C)C)c(O)c3c(=O)c2c1CC=C(C)C [MANGOSTIN]	> 90	–	15.4	2.2	Activity (Chikungunya virus [2]): 7.37 log10FFU/ml; Activity (Chikungunya virus [15]): 7.28 log10FFU/ml
COc1c(OCC(=O)N2CCN(S(=O)(=O)c3ccc(C#N)cc3)CC2)cc2oc3cc4c(c(O)c3c(=O)c2c1CC=C(C)C)C=CC(C)(C)O4	> 90	119	223	1.88	Activity (Chikungunya virus [2]): 7.44 log10FFU/ml
COc1c(O)cc2oc3cc4c(c(O)c3c(=O)c2c1CC=C(C)C)C=CC(C)(C)O4 [MANGOSTANIN]	> 90	5.55	6.68	1.02	Activity (Chikungunya virus [2]): 6.42 log10FFU/ml; Activity (Chikungunya virus [16]): 7.47 log10FFU/ml
COc1c(OCC#Cc2ccc(I)cc2)cc2oc3cc4c(c(O)c3c(=O)c2c1CC=C(C)C)C=CC(C)(C)O4	> 90	–	–	–	–
COc1c(OCC#Cc2ccccc2)cc2oc3cc4c(c(O)c3c(=O)c2c1CC=C(C)C)C=CC(C)(C)O4	> 90	–	–	–	–
COc1c(OCc2cn(-c3cc(C)ccc3C)nn2)cc2oc3cc4c(c(O)c3c(=O)c2c1CC=C(C)C)C=CC(C)(C)O4	> 90	–	–	–	–

SMILES	Activity (Vero) [%]	selectivity ratio at 24 h [1]	CC50 [4] [µM]	IC50 (Chikungunya virus [5]) [µM]	also measured
COc1c(O)cc2oc3cc(O)c4c(c3c(=O)c2c1CC=C(C)C)OC(C)(C)CC4	> 90	4.01	119	29.7	Activity (Chikungunya virus [10]): Active; Activity (Chikungunya virus [11]): 7.62 log10FFU/ml; Activity (Chikungunya virus [2]): 7.39 log10FFU/ml
COc1c(OCc2cn(-c3cccc(C(F)(F)F)c3)nn2)cc2oc3cc4c(c(O)c3c(=O)c2c1CC=C(C)C)C=CC(C)(C)O4	> 90	–	–	–	–
O=c1cc(-c2ccc(O)c(O)c2)oc2c(O)c(O)cc(O)c12 [HYPOLAETIN]	> 90	–	–	–	–
COc1c(OCc2cn(-c3ccccc3)nn2)cc2oc3cc4c(c(O)c3c(=O)c2c1CC=C(C)C)C=CC(C)(C)O4	> 90	–	–	–	–
COc1c(OCC#Cc2ccc(Cl)cc2)cc2oc3cc4c(c(O)c3c(=O)c2c1CC=C(C)C)C=CC(C)(C)O4	> 90	–	–	–	–
COc1c(OCC#Cc2ccccc2Br)cc2oc3cc4c(c(O)c3c(=O)c2c1CC=C(C)C)C=CC(C)(C)O4	> 90	–	–	–	–
COc1c(OCc2cn(-c3cccc(F)c3F)nn2)cc2oc3cc4c(c(O)c3c(=O)c2c1CC=C(C)C)C=CC(C)(C)O4	> 90	–	–	–	–
COc1c(OCC(=O)N2CCN(S(=O)(=O)c3ccc(C(F)(F)F)cc3)CC2)cc2oc3cc4c(c(O)c3c(=O)c2c1CC=C(C)C)C=CC(C)(C)O4	> 90	25	160	6.41	Activity (Chikungunya virus [13]): ~7.29 log10FFU/ml; Activity (Chikungunya virus [14]): ~7.29 log10FFU/ml; Activity (Chikungunya virus [17]): 7.4 log10FFU/ml; IC50 (Chikungunya virus [3]): 6.96 µM
COc1c(OCC(=O)N2CCN(S(=O)(=O)c3ccc(Br)cc3)CC2)cc2oc3cc4c(c(O)c3c(=O)c2c1CC=C(C)C)C=CC(C)(C)O4	> 90	–	–	–	–
CC(C)=CCc1c(O)c(CC=C(C)C)c2oc3c(O)ccc(O)c3c(=O)c2c1O [GARTANIN]	> 90	2.07	7.71	3.73	Activity (Chikungunya virus [15]): 7.42 log10FFU/ml
COc1c(OCc2cn(-c3ccc(Cl)cc3)nn2)cc2oc3cc4c(c(O)c3c(=O)c2c1CC=C(C)C)C=CC(C)(C)O4	> 90	63.1	59.7	0.947	Activity (Chikungunya virus [7]): Active; Activity (Chikungunya virus [8]): Active; Activity (Chikungunya virus [6]): Active; Activity (Chikungunya virus [18]): >90%
C#CCOc1cc2oc3cc4c(c(O)c3c(=O)c2c(CC=C(C)C)c1OC)C=CC(C)(C)O4	> 90	–	–	–	–
COc1c(OCc2cn(-c3c(C)cccc3C)nn2)cc2oc3cc4c(c(O)c3c(=O)c2c1CC=C(C)C)C=CC(C)(C)O4	> 90	–	–	–	Activity (Chikungunya virus [8]): Active
COc1c(OCc2cn(-c3cc(Cl)ccc3Cl)nn2)cc2oc3cc4c(c(O)c3c(=O)c2c1CC=C(C)C)C=CC(C)(C)O4	> 90	76	148	1.95	Activity (Chikungunya virus [7]): Active; Largest Inhibitory Effect Was Observed; Activity (Chikungunya virus [6]): Active; Activity (Chikungunya virus [18]): >90%
COc1c(OCC#Cc2ccc(C#N)cc2)cc2oc3cc4c(c(O)c3c(=O)c2c1CC=C(C)C)C=CC(C)(C)O4	> 90	–	–	–	–
COc1c(OCc2cn(-c3c(C)cc(C)cc3C)nn2)cc2oc3cc4c(c(O)c3c(=O)c2c1CC=C(C)C)C=CC(C)(C)O4	< 90	–	–	–	–
COc1c(OCc2cn(-c3ccc(F)c(Cl)c3)nn2)cc2oc3cc4c(c(O)c3c(=O)c2c1CC=C(C)C)C=CC(C)(C)O4	> 90	–	–	–	–
CC(C)=CCc1c(O)cc2oc3cc(O)c4c(c3c(=O)c2c1O)CCC(C)(C)O4	> 90	2.79	11.4	4.1	Activity (Chikungunya virus [15]): 7.43 log10FFU/ml
O[C@H]1[C@H](O)[C@@H](O)[C@H](O)[C@@H](O)[C@H]1O [INOSITOL]	> 90	–	–	–	–
